Measurements: PubChem BioAssay (NCI)
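Protocol summary: plate cells (96-well), add compound at 5 concentrations, incubate 48 h, interpolate endpoints linearly. Abbreviation: GI50, concentration required for 50% inhibition of growth. Definition used: TGI = concentration required for complete inhibition of growth.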

Legend:
Experiment in all cases: NCI tumour cell line growth inhibition, 48 h
SF-268 CNS = test system: SF-268 CNS
OVCAR-4 ovarian = test system: OVCAR-4 ovarian
SK-MEL-28 melanoma = test system: SK-MEL-28 melanoma
HL-60(TB) leukemia = test system: HL-60(TB) leukemia
M14 melanoma = test system: M14 melanoma
ACHN renal = test system: ACHN renal
SW-620 colon = test system: SW-620 colon
HCT-116 colon = test system: HCT-116 colon
CCRF-CEM leukemia = test system: CCRF-CEM leukemia
CAKI-1 renal = test system: CAKI-1 renal
NCI-H460 lung = test system: NCI-H460 lung
HOP-92 NSCLC = test system: HOP-92 NSCLC
RXF 393 renal = test system: RXF 393 renal
HCT-15 colon = test system: HCT-15 colon
T-47D breast = test system: T-47D breast
MDA-MB-435 = test system: MDA-MB-435
SF-295 CNS = test system: SF-295 CNS
LOX IMVI melanoma = test system: LOX IMVI melanoma
SNB-75 CNS = test system: SNB-75 CNS
MCF7 breast = test system: MCF7 breast
OVCAR-8 ovarian = test system: OVCAR-8 ovarian
SF-539 CNS = test system: SF-539 CNS
MALME-3M melanoma = test system: MALME-3M melanoma
U251 CNS = test system: U251 CNS
HCC-2998 colon = test system: HCC-2998 colon
HT29 colon = test system: HT29 colon
SK-MEL-5 melanoma = test system: SK-MEL-5 melanoma
KM12 colon = test system: KM12 colon
SK-OV-3 ovarian = test system: SK-OV-3 ovarian
K-562 leukemia = test system: K-562 leukemia
UO-31 renal = test system: UO-31 renal
A549 NSCLC = test system: A549 NSCLC
BT-549 breast = test system: BT-549 breast
SNB-19 CNS = test system: SNB-19 CNS
SK-MEL-2 melanoma = test system: SK-MEL-2 melanoma
RPMI-8226 leukemia = test system: RPMI-8226 leukemia
MDA-MB-231 breast = test system: MDA-MB-231 breast
UACC-62 melanoma = test system: UACC-62 melanoma
PC-3 prostate = test system: PC-3 prostate
786-0 renal = test system: 786-0 renal
HS 578T breast = test system: HS 578T breast
IGROV1 ovarian = test system: IGROV1 ovarian
SR leukemia = test system: SR leukemia
COLO 205 colon = test system: COLO 205 colon
TK-10 renal = test system: TK-10 renal
NCI-H226 lung = test system: NCI-H226 lung
NCI-H522 lung = test system: NCI-H522 lung
NCI/ADR-RES ovarian = test system: NCI/ADR-RES ovarian
OVCAR-5 ovarian = test system: OVCAR-5 ovarian
A498 renal = test system: A498 renal
SN12C renal = test system: SN12C renal
OVCAR-3 ovarian = test system: OVCAR-3 ovarian
DU-145 prostate = test system: DU-145 prostate
EKVX NSCLC = test system: EKVX NSCLC
HOP-62 NSCLC = test system: HOP-62 NSCLC
MOLT-4 leukemia = test system: MOLT-4 leukemia
NCI-H23 lung = test system: NCI-H23 lung

Cn1cc(-c2nonc2-c2cn(C)c3ccc(F)cc23)c2ccccc21
GI50 (SF-268 CNS): 1210 nM | TGI (SF-268 CNS): > 100000 nM | TGI (OVCAR-4 ovarian): > 100000 nM | GI50 (SK-MEL-28 melanoma): 3500 nM | TGI (SK-MEL-28 melanoma): > 100000 nM | GI50 (HL-60(TB) leukemia): 306 nM | TGI (HL-60(TB) leukemia): 2300 nM | GI50 (M14 melanoma): 342 nM | TGI (M14 melanoma): > 100000 nM | GI50 (ACHN renal): 595 nM | TGI (ACHN renal): > 100000 nM | GI50 (SW-620 colon): 361 nM | TGI (SW-620 colon): > 100000 nM | GI50 (HCT-116 colon): 432 nM | TGI (HCT-116 colon): > 100000 nM | GI50 (CCRF-CEM leukemia): 319 nM | TGI (CCRF-CEM leukemia): > 100000 nM | GI50 (CAKI-1 renal): 416 nM | TGI (CAKI-1 renal): > 100000 nM | GI50 (NCI-H460 lung): 390 nM | TGI (NCI-H460 lung): > 100000 nM | GI50 (HOP-92 NSCLC): 439 nM | TGI (HOP-92 NSCLC): > 100000 nM | GI50 (RXF 393 renal): 271 nM | TGI (RXF 393 renal): 873 nM | GI50 (HCT-15 colon): 398 nM | TGI (HCT-15 colon): > 100000 nM | GI50 (T-47D breast): 809 nM | TGI (T-47D breast): > 100000 nM | GI50 (MDA-MB-435): 199 nM | TGI (MDA-MB-435): 623 nM | GI50 (SF-295 CNS): 299 nM | GI50 (LOX IMVI melanoma): 564 nM | TGI (LOX IMVI melanoma): > 100000 nM | GI50 (SNB-75 CNS): 206 nM | TGI (SNB-75 CNS): 702 nM | GI50 (MCF7 breast): 366 nM | TGI (MCF7 breast): > 100000 nM | GI50 (OVCAR-8 ovarian): 630 nM | TGI (OVCAR-8 ovarian): > 100000 nM | GI50 (SF-539 CNS): 291 nM | TGI (SF-539 CNS): 1580 nM | GI50 (MALME-3M melanoma): 540 nM | TGI (MALME-3M melanoma): > 100000 nM | GI50 (U251 CNS): 469 nM | TGI (U251 CNS): > 100000 nM | GI50 (HCC-2998 colon): 958 nM | TGI (HCC-2998 colon): > 100000 nM | GI50 (HT29 colon): 346 nM | TGI (HT29 colon): > 100000 nM | GI50 (SK-MEL-5 melanoma): 502 nM | TGI (SK-MEL-5 melanoma): > 100000 nM | GI50 (KM12 colon): 433 nM | TGI (KM12 colon): > 100000 nM | GI50 (SK-OV-3 ovarian): 594 nM | TGI (SK-OV-3 ovarian): > 100000 nM | GI50 (K-562 leukemia): 311 nM | TGI (K-562 leukemia): > 100000 nM | GI50 (UO-31 renal): 438 nM | TGI (UO-31 renal): > 100000 nM | GI50 (A549 NSCLC): 703 nM | TGI (A549 NSCLC): > 100000 nM | GI50 (BT-549 breast): 923 nM | TGI (BT-549 breast): > 100000 nM | GI50 (SNB-19 CNS): 555 nM | TGI (SNB-19 CNS): > 100000 nM | GI50 (SK-MEL-2 melanoma): 552 nM | TGI (SK-MEL-2 melanoma): > 100000 nM | GI50 (RPMI-8226 leukemia): 463 nM | TGI (RPMI-8226 leukemia): > 100000 nM | GI50 (MDA-MB-231 breast): 869 nM | TGI (MDA-MB-231 breast): > 100000 nM | GI50 (UACC-62 melanoma): 469 nM | TGI (UACC-62 melanoma): > 100000 nM | GI50 (PC-3 prostate): 427 nM | TGI (PC-3 prostate): > 100000 nM | GI50 (786-0 renal): 614 nM | TGI (786-0 renal): > 100000 nM | GI50 (HS 578T breast): 299 nM | GI50 (IGROV1 ovarian): 522 nM | TGI (IGROV1 ovarian): > 100000 nM | GI50 (SR leukemia): 269 nM | TGI (SR leukemia): > 100000 nM | GI50 (COLO 205 colon): 856 nM | TGI (COLO 205 colon): > 100000 nM | GI50 (TK-10 renal): > 20400 nM | TGI (TK-10 renal): > 100000 nM | GI50 (NCI-H226 lung): 2560 nM | TGI (NCI-H226 lung): > 100000 nM | GI50 (NCI-H522 lung): 357 nM | TGI (NCI-H522 lung): > 100000 nM | GI50 (NCI/ADR-RES ovarian): 395 nM | TGI (NCI/ADR-RES ovarian): > 58300 nM | GI50 (OVCAR-5 ovarian): 1050 nM | TGI (OVCAR-5 ovarian): > 100000 nM | GI50 (A498 renal): 273 nM | TGI (A498 renal): 976 nM | GI50 (SN12C renal): 724 nM | TGI (SN12C renal): > 100000 nM | GI50 (OVCAR-3 ovarian): 340 nM | GI50 (DU-145 prostate): 530 nM | TGI (DU-145 prostate): > 100000 nM | GI50 (EKVX NSCLC): 721 nM | TGI (EKVX NSCLC): > 100000 nM | GI50 (HOP-62 NSCLC): 590 nM | TGI (HOP-62 NSCLC): > 100000 nM | GI50 (MOLT-4 leukemia): 685 nM | TGI (MOLT-4 leukemia): > 100000 nM | GI50 (NCI-H23 lung): 836 nM | TGI (NCI-H23 lung): > 100000 nM
